The values below are quoted from earlier work in PMC10225205 (Cancer Medicine, 2023).

Where two headings read alike, the source gives them in different places.

The conditions of the data set: cited from earlier work.

`CCN1CCN(c2ccc(Nc3cc(N(C)C(=O)Nc4c(Cl)c(OC)cc(OC)c4Cl)ncn3)cc2)CC1` [infigratinib]: the “Most commonly reported (>30%) TEAEs” value (global phase 1 study) was “hyperphosphatemia, constipation, appetite decreased, stomatitis, diarrhea, nausea, and fatigue”.

For the compound `C=CC(=O)N1CC[C@H](n2nc(C#Cc3cc(OC)cc(OC)c3)c3c(N)ncnc32)C1` [futibatinib], the “Most common TEAE” value (phase 1, Japanese patients with advanced solid tumors) was “hyperphosphatemia”. For the same compound, the “Most frequently reported TEAEs” value (phase 1 study, advanced solid tumors) was “hyperphosphatemia, diarrhea, constipation, and nausea”.

As to `COc1cc(OC)cc(N(CCNC(C)C)c2ccc3ncc(-c4cnn(C)c4)nc3c2)c1` [erdafitinib], for the setting “in vivo”, the “Most common TEAE” value is “hyperphosphatemia”. For the same compound, the “Most common TEAEs” value (phase 1 multicenter study, advanced solid tumors) was “hyperphosphatemia, dry mouth, stomatitis, and asthenia”.
